From US20220324796A1, “ANTIBIOTIC COMPOUNDS” (The General Hospital Corporation, priority 2019, published 2022)
Converted amounts (≈) assume the structure as drawn.

What was measured:
[1] = system: daptomycin-intermediate or-resistant Enterococcal strains; assay: MIC assay, Enterococcal strains; type: cell-based; conditions: Enterococcus; range over several daptomycin-intermediate or -resistant Enterococcal strains
Protocol: Bacterial strains and growth conditions. S. aureus strains were grown in tryptic soy broth (TSB) (BD, Franklin Lakes, N.J., USA). E. faecium and E. faecalis strains were grown in brain-heart infusion (BHI) broth (BD, Franklin Lakes, N.J., USA), and four Gram-negative species, Klebsiella pneumoniae, Acinetobacter baumannii, Pseudomonas aeruginosa, and Enterobacter aerogenes were grown in Luria Bertani (LB) broth (BD, Franklin Lakes, N.J., USA). All bacteria were grown at 37° C. at 200 r.p.m.
(§1) Minimal inhibitory concentration (MIC) assay. The MICs of antibiotics were determined by the standard micro-dilution method recommended by the Clinical and Laboratory Standards Institute. MIC assays were conducted in biological triplicate.

[2] = system: HKC-8 human renal proximal cells; assay: Mammalian membrane permeability assay (SYTOX Green); type: cell-based; conditions: up to 64 μg/mL
Protocol: Mammalian membrane permeability assay. Human renal proximal tubular epithelial cells (HKC-8) were grown in Dulbecco' s modified Eagle F-12 media mixed 1:1 with Ham's F-12 (DMEM/F-12, Life Technologies, Carlsbad, Calif., USA) supplemented with 10% FBS and 4 mM L-glutamine at 37° C. in 5% CO2. For membrane permeability assays, HKC-8 was cultured in black, clear-bottom, 96-well plates (Corning no. 3904) in 100 μl/well of the growth media to reach ˜70% confluence. After washing the cells twice with PBS, 50 μl of 0.25 μM SYTOX Green was added to each well. After incubating the cells at 37° C. in 5% CO2 for 15 min, the cells were treated with a range of concentrations of bithionol or the cholesterol binding detergent saponin (positive control). Fluorescence was measured at room temperature using a spectrophotometer (SpectraMax M2, Molecular Devices) with excitation and emission wavelengths of 485 nm and 525 nm, respectively. The assay was carried out in biological duplicate.
To visualize HKC-8 cells with compromised membranes, HKC-8 was cultured in 24-well plates (Corning no. 3527) until —70% confluence. After washing the cells twice with PBS, 500 μl of 1 μM SYTOX Green was added to each well. The cells were incubated at 37° C. in 5% CO2 for 15 min and then treated with 32 μg/mL (final concentration) bithionol or saponin for 1 h. […]

[3] = system: Gram-negative bacteria including Escherichia coli and Shigella dysenteriae; conditions: previously described; cited from earlier work
[4] = system: exponential phase MRSA MW2 cells; assay: Cell lysis by optical density; type: cell-based, S. aureus; conditions: 10 μg/mL, 4 h
[5] = system: MRSA BF2; assay: MIC assay (micro-dilution); type: cell-based, S. aureus; conditions: Staphylococcus aureus
Protocol: as §1
Antimicrobial activity of each analog was tested against four MRSA strains (MW2, BF1, BF2, and BF3), Pseudomonas aeruginosa (PA14), Klebsiella pneumonia (WGLW2), and Acinetobacter baumannii (ATCC 17978).

[6] = system: Gram-positive bacteria including S. aureus, Bacilius subtilis, and Enterococcus faecium; conditions: previously described; cited from earlier work
[7] = system: MRSA BF4; assay: MIC assay (micro-dilution); type: cell-based, S. aureus; conditions: Staphylococcus aureus; daptomycin-intermediate resistant MRSA strain BF4
Protocol: as §1

[8] = system: human erythrocytes; conditions: 1 h
[9] = system: VRSA strain VRS1 persisters; assay: Persister killing assay; type: cell-based, S. aureus; conditions: linezolid and daptomycin at 100× MIC; bithionol at indicated concentrations (FIG. 1E)
Protocol: (§2) Persister killing assay. […] Persister cells of MRSA MW2 or VRSA VRS1 were prepared by growing cultures overnight to stationary phase at 37° C. at 200 rpm and washing three times with PBS. 1 mL of ˜1×10^8 CFU/mL MRSA persisters was added to 1 mL of PBS containing a 2-fold higher concentration of the desired concentration of antibiotics in a 96-well assay block (Corning Costar 3960). For assays with daptomycin, PBS was supplemented with 50 μg/mL CaCl2. The assay block was incubated at 37° C. with shaking at 200 rpm. At various times, 400 μl samples were removed, washed once with PBS, serially diluted and spot-plated on TSA plates. Colonies were counted after overnight incubation at 37° C. to determine the titer of live cells. These experiments were conducted in triplicate.

[10] = system: stationary-phase MRSA MW2 persisters; assay: Persister killing assay; type: cell-based, S. aureus
Protocol: as §2

[11] = system: S. aureus MW2; assay: Membrane fluidity assay (Laurdan GP); type: cell-based; conditions: 1 h
Protocol: Membrane fluidity assay. Bacterial membrane fluidity was estimated by slightly modifying previously described methods. An overnight culture of S. aureus MW2 was diluted 1:1,000 in 25 mL TSB. The diluted culture was grown to OD600˜1.5 at 37° C. with shaking at 200 rpm, followed by 10 min incubation with 10 μM Laurdan at room temperature in the dark (Sigma-Aldrich, Cat # 40227). The stained cell culture was washed with PBS 4 times and concentrated 2 times. 100 μL of the 2-fold concentrated culture was mixed with 100 μL of phosphate buffered saline (PBS) containing twice the desired concentrations of compounds in black, clear-bottom, 96-well plates (Corning no. 3904). After 1 h incubation at room temperature in the dark, the Laurdan fluorescence intensities were measured using a spectrophotometer (SpectraMax M2, Molecular Devices) with emission wavelengths of 435 nm and 490 nm upon excitation at 350 nm. The Laurdan GP was calculated using the formula GP=(I435−I490)/(I435+I490). All experiments were conducted in biological triplicate.

Oc1c(Cl)cc(Cl)cc1Sc1cc(Cl)cc(Cl)c1O [bithionol, 6,6′-thio-bis-(2,4-dichlorophenol)]
MIC [1]: 0.5 to 2 µg/mL (≈ 1.4 to 5.62 µM) | SYTOX Green membrane permeabilization of HKC-8 cells [2]: did not induce SYTOX Green membrane permeabilization | MIC [3]: > 100 µg/mL | optical density of S. aureus cells (bacteriolytic activity) [4]: time-dependent decrease in optical density | MIC [5]: 0.5 µg/mL (≈ 1.4 µM) | minimal inhibitory concentration (MIC) [6]: 8 to 15 µg/mL | MIC [7]: 0.5 µg/mL (≈ 1.4 µM) | HC50 [8]: > 64 µg/mL | activity against VRSA VRS1 persisters [9]: highly efficacious at eradicating | time to complete eradication of stationary-phase MRSA persisters ([10]; 32 μg/mL (32× MIC)): ≤ 2 h | concentration required to completely eradicate stationary-phase MRSA persisters ([10]; 5×10^7 CFU/mL MRSA MW2 persisters): 32 µg/mL | concentrations exhibiting significant killing activity against MRSA MW2 persisters ([10]; FIG. 1C): > 16 µg/mL | viability of MRSA persisters ([10]; bithionol 8 μg/mL alone (FIGS. 1C, D)): do not lead to a significant decrease in the viability | concentrations inducing a significant decrease in Laurdan GP [11]: over 8 μg/mL
